Data taken from the METLIN SMRT retention time set (Domingo-Almenara et al. 2019).

Assay: gradient 5% acetonitrile 3 min, to 50% in 2 min, to 85% in 15 min, held 3 min, 100 µL/min
Settings: column: Zorbax Extend-C18 2.1 x 50 mm; eluents: water / acetonitrile, 0.1% formic acid
Procedure, shortened: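 The system's dead and dwell volumes were 40 μL and 900 μL, with a Zorbax Extend-C18 column (2.1 × 50 mm, 1.8 μm) run at 100 μL/min in water and acetonitrile containing 0.1% formic acid each. Pure standards were analyzed in mixtures of ~100 molecules by HPLC–quadrupole time-of-flight mass spectrometry in positive and negative ionization mode. Retention time was assigned from computationally picked, manually inspected adduct peaks.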

Compound	RP-LC retention time
CC(NC(=O)c1ccc(-c2cncnc2)nc1)c1ccccc1 (stereo not drawn)	715 s
Cc1ccc(S(=O)(=O)N2C(=O)CCC2C(=O)NCc2nc(-c3ccc(Cl)cc3)no2)cc1 (stereo not drawn)	951 s
CN(Cc1ccccc1)C(=O)C1CCN(S(=O)(=O)c2ccc3c(c2)sc(=O)n3C)CC1	852 s
O=C(CCCN1CCN(Cc2ccc(F)cc2)C(=O)C1=O)NCCc1ccc(Cl)cc1	733 s
COc1ccc2c(c1)C1(CCN(C(=O)Nc3cccc(F)c3)C1)C(=O)N2 (stereo not drawn)	683 s
Cc1cc(Cl)ccc1OCC(=O)Nc1nc(-c2ccc(F)cc2)cs1	1190 s
Cc1ccc(C(=O)N2CCCC2c2nc(-c3ccc(F)cc3F)no2)s1 (stereo not drawn)	1010 s
COc1ccc(-c2noc(C3CCCN3C(=O)Nc3ccc(F)cc3F)n2)cc1 (stereo not drawn)	963 s
Cc1cc(C)c(CNC(=O)c2ccc(NC(=O)C3CC3)cc2N2CCOCC2)c(C)c1	901 s
O=C(COc1ccccc1)Nc1ccc2c(c1)N(C(=O)c1ccco1)CCC2	899 s
Nc1nc(N2CCN(C3CCCCC3)CC2)ncc1C(=O)NCc1ccccc1F	629 s
CN(CC1CCOCC1)S(=O)(=O)Cc1cccc(Cl)c1	835 s
COC(=O)c1ccc(NC(=O)CSc2ccc(NC(=O)c3ccccc3F)nn2)cc1	805 s
Cc1ccc(-c2nnc(C)c(NCc3ccc4c(c3)OCO4)n2)cc1	730 s
CC(C)C(=O)NCCc1csc(C2CCCN(C(=O)C(C)(C)C)C2)n1 (stereo not drawn)	734 s
O=C(Nc1nnc(C2CC(=O)N(c3ccccc3)C2)o1)c1ccccn1 (stereo not drawn)	620 s
CCN1C(=O)COc2ccc(-c3noc(CNS(=O)(=O)c4ccc(F)cc4)n3)cc21	860 s
O=S(=O)(c1ccc(-n2cnnn2)cc1)N1CCN(c2ccccn2)CC1	596 s
COc1ccc(Cl)cc1N1C=C(C#N)S(=O)(=O)c2ccccc21	918 s

Compound	RP-LC retention time
O=C(NCCc1ccccc1)N1CCN(CCn2c(-c3ccncc3)nc3cccnc32)CC1	593 s
COc1ccc(-c2noc(C3CCCN3C(=O)c3cccnc3SC)n2)cc1 (stereo not drawn)	907 s
COc1cccc(C(=O)N2CCC3(CC2)NC(=O)c2cc(C)ccc2N3C)c1	752 s
Cn1cc(-c2nc(C(=O)NCc3cccc(C(F)(F)F)c3)cs2)c2cccnc21	983 s
Cc1ccccc1CCNC(=O)c1cc2n(n1)CC(C)(C(=O)NCc1ccccc1)N(C)C2=O (stereo not drawn)	764 s
Cc1ccc2c(c1)c1ncn(Cc3nc(C(C)C)no3)c(=O)c1n2CC(=O)N1CCCC1	818 s
CCOC(=O)c1nnc2c(-c3ccccc3)cnn2c1C	961 s
CCc1cc(C(=O)Nc2cccc(OC)c2)nc2ccnn12	985 s
COCCCNC(=O)c1c(OCC2CC2)cc(=O)n2c1CCCCC2	611 s
CN1CCCN(C(=O)c2cn3ccnc(-c4ccccc4)c3n2)CC1	710 s
COc1ccc(C(=O)NCc2cnoc2-c2ccc(F)cc2)cc1OC	820 s
CC(C)Cn1cc(S(=O)(=O)Nc2cc(F)ccc2Cl)c2cccnc21	1020 s
CSc1ccc(-c2nc3cnccn3c2Nc2ccc(Cl)cc2)cc1	1010 s
Cc1ccc(-n2c(=O)c3c(cc(C)n3C)n(CC(=O)Nc3ccc(Cl)cc3)c2=O)cc1	910 s
CCOc1ccccc1NC(=O)N1CC(n2ccnc2C)C1	639 s
CN(C)C(=O)c1cc2cnc(Nc3ccc(N4CCNCC4)cn3)nc2n1C1CCCC1	630 s
Cc1ccc(-c2nnc(-c3nc(NCCc4cccs4)c4ccccc4n3)o2)cc1	1120 s
Cc1ccc(-c2noc(Cn3cnc4c(cnn4-c4ccccc4)c3=O)n2)cc1	1090 s

Results, then the compound that gave them:

RP-LC retention time	Compound
811 s	CCn1cc(-c2nc(-c3ccc(OC)c(OC)c3)no2)c(=O)c2cc(F)ccc21
912 s	CC(C)Cn1cc(S(=O)(=O)Nc2cccc(Cl)c2)c2cccnc21
1110 s	O=C(CSc1nc2ccccc2s1)Nc1cccn2cc(-c3ccccc3)nc12
876 s	CC1CCN(C(=O)c2ccc(-c3ccsc3)nc2)CC1
1000 s	COc1cc(NC(=O)CN2C(=O)CC(c3ccc(Cl)cc3)=Nc3cccnc32)cc(OC)c1
647 s	COc1ccc(CC(=O)N2C[C@@H]3C[C@H]2C[C@@H]3NS(C)(=O)=O)cc1
758 s	Cc1ccc(-n2cc3c(c(C(=O)N4CCCC4)c2=O)CC(C)(C)CC3=O)cc1
577 s	COc1cccc(-c2nc(NCc3ccncc3)ncc2C(=O)O)c1
741 s	Cn1cc(CCNS(=O)(=O)c2ccccc2Br)c2cccnc21
769 s	CCn1cnc(S(=O)(=O)N2CCCC(C(=O)NCCCc3ccccc3)C2)c1 (stereo not drawn)
892 s	CCC1Oc2ccc(S(=O)(=O)N3CCC(C(=O)Nc4cccc(Cl)c4)CC3)cc2NC1=O (stereo not drawn)
1230 s	Cc1cc(C)c(S(=O)(=O)N2CCc3nc(-c4ccccc4)ncc3C2)cc1C
918 s	Cc1ccc(-n2c(=O)c3c(cc(C)n3C)n(CC(=O)Nc3cccc(Cl)c3C)c2=O)cc1
572 s	Cn1cc(CN2CCC(C(=O)NCC3CCN(Cc4cccc(F)c4)CC3)CC2)c2ccccc21
710 s	COc1c(C(=O)NCCN2CCC(C)CC2)sc2ccc(Cl)cc12
1200 s	COc1ccc(-n2c(=O)c(C(=O)Nc3ccccc3)c(O)c3cccnc32)cc1
600 s	Cn1c(=O)n(C)c2cc(CNCCC3=CCCCC3)ccc21
793 s	COc1cccc(CCC(=O)N2C[C@@H]3C[C@H](NC(=O)c4ccccc4)[C@H]2C3)c1
998 s	CCc1ccc(NC(=O)C2CCN(S(C)(=O)=O)c3cc(C)ccc3O2)cc1 (stereo not drawn)
668 s	CCOC(=O)C1=C(CN2CCN(C(C)CC)CC2)NC(=O)NC1c1ccc(OC(C)C)cc1 (stereo not drawn)
622 s	CC(=O)N1CCC([C@@H]2CN(C(=O)c3ccc(Br)o3)C[C@H]2CO)CC1
841 s	O=C(c1ccc(-c2ccsc2)nc1)N1CCCCCC1
1190 s	O=C(Nc1cccc(Cl)c1)N1CCN(c2ncc(C(F)(F)F)cc2Cl)CC1
865 s	Cc1cccc(S(=O)(=O)N2CC3CN(C(=O)C4CCCCC4)CC(C2)O3)c1
1090 s	CCOC(=O)c1cccc(NC(=O)Cn2c(C)nc3c(sc4nc(-c5ccccc5)ccc43)c2=O)c1
927 s	Cc1csc(-c2cc(S(=O)(=O)NC3CCCCC3)cn2CC(=O)N2CCCC2)n1

RP-LC retention time	Compound
1280 s	CSc1nc(Nc2cccc(Cl)c2)c(C#N)c(-c2ccccc2)n1
786 s	CCC(=O)Nc1cc2c(cc1S(=O)(=O)c1ccccc1)n(CC)c(=O)n2CC
917 s	N#Cc1ccc(-c2nc(-c3cccc(-c4ccn[nH]4)c3)no2)cc1
1070 s	Cc1nc(-c2cc(S(=O)(=O)N3CCC(C(=O)NC4CCCCCCC4)CC3)c(C)s2)no1
660 s	CCC1CN(C(=O)N2CCC(C(=O)NCCN3CCCCCC3)CC2)c2ccccc2O1 (stereo not drawn)
799 s	COc1ccccc1NS(=O)(=O)c1cc2c3c(c1)CCC(=O)N3CCC2
800 s	O=C(CC1(O)C(=O)Nc2c(Cl)cc(Cl)cc21)c1ccc([N+](=O)[O-])cc1 (stereo not drawn)
1130 s	Fc1cc(F)cc(-c2nnc(Cc3nc(-c4ccc(Cl)cc4)no3)o2)c1
757 s	CC(NC(=O)c1ccco1)c1nc(-c2ccc(N3CCOCC3)cc2)no1 (stereo not drawn)
678 s	COc1cccc(S(=O)(=O)N2CCC(OCCOCc3ccccc3)CC2)c1
880 s	Cc1cc2c(c(=O)n(-c3ccc(F)cc3)c(=O)n2CC(=O)Nc2ccccc2C(F)(F)F)n1C
812 s	Cc1cccc(N2C(=O)CN(Cc3ccc(F)cc3)[C@H]3CS(=O)(=O)C[C@H]32)c1
1160 s	Cc1nn(C(C)C(=O)Nc2ccc(Cl)cc2)c(=O)c2c(-n3cccc3)n(-c3ccccc3)nc12 (stereo not drawn)
942 s	CCOc1ccc(-n2ccn3cc(-c4ccc(C)cc4C)nc3c2=O)cc1
910 s	CCN(c1ccccc1)S(=O)(=O)c1cc2c3c(c1)CCC(=O)N3CCC2
634 s	CCN1C(=O)CN(C(=O)CC(C)C)CC12CCOCC2
910 s	Cn1c(=O)c(N2CCC(NC(=O)Nc3ccccc3F)CC2)nc2ccccc21
1130 s	CCOc1ccc2cccc(NC(=O)Cc3cccs3)c2n1
974 s	Nc1nc(-c2ccccc2)nn1C(=O)c1ccc(F)cc1
1020 s	CCOC(=O)c1cnc2c(-c3ccc(F)cc3)c(C)nn2c1N
769 s	COc1cccc(CNC(=O)CN2CCN(Cc3ccc(F)cc3)C2=O)c1
590 s	COc1ccc(-c2[nH]ncc2CN2CC(F)(F)C[C@H]2CN2CCOCC2)cc1
885 s	Cc1[nH]c(C(=O)N2CCCC(C(=O)NCc3cccc(Cl)c3)C2)c(C)c1C(=O)OC(C)C (stereo not drawn)
806 s	CCc1cccc(C)c1Nc1c(-c2ccc(N3CCOCC3)cc2)nc2ncccn12
556 s	CC(C)CCN1CCC(C2CCN(C(=O)c3ccncc3)C2)CC1 (stereo not drawn)
